Laboratory results published in patent publication US9580390B2, “Indazole compounds as kinase inhibitors and method of treating cancer with same” (University Health Network, priority 2011, dated 2017).

Key:
human TTK = molecular target: T1, human TTK (Homo sapiens, UniProt P33981); experiment: TTK inhibition assay (indirect ELISA); assay type: biochemical; details: read-out: TTK IC50 Range
T1 construct: amino terminal GST fusion of full length human TTK; purchased Invitrogen
T1 sequence (P33981 1-857): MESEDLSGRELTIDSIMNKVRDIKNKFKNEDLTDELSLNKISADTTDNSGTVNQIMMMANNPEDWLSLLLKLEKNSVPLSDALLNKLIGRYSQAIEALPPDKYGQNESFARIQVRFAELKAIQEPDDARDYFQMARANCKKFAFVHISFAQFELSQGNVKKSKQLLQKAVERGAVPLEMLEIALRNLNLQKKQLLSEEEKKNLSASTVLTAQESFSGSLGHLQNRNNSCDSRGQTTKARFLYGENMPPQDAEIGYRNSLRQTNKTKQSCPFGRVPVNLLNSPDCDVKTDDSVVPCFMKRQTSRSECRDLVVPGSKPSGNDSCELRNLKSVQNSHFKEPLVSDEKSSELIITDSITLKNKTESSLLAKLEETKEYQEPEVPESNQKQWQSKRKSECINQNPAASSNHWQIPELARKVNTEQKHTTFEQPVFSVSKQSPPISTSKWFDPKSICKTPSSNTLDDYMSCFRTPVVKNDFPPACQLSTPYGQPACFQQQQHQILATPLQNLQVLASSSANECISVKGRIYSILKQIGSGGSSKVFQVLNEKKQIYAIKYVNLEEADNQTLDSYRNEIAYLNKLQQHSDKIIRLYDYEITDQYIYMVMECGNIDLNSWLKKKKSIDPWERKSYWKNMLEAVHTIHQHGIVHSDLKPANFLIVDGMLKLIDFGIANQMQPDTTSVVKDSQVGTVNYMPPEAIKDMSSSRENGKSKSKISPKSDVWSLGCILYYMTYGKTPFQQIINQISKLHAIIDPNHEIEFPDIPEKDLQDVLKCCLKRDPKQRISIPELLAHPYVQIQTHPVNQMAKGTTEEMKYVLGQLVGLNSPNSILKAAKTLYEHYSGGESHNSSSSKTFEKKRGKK

Breast cancer cells = experiment: Cancer cell line growth inhibition (SRB assay); assay type: cell-based; details: Homo sapiens; MDA-MB-468; read-out: Cancer Cell Line GI50 Range MDA-MB-468
[1] = tested on: colon cancer cells (HCT116); experiment: Cancer cell line growth inhibition (SRB assay); assay type: cell-based; details: Homo sapiens, HCT-116; read-out: Cancer Cell Line GI50 Range HCT116
[2] = tested on: ovarian cancer cells (PA-1); experiment: Cancer cell line growth inhibition (SRB assay); assay type: cell-based; details: Homo sapiens, PA-1; read-out: Cancer Cell Line GI50 Range PA-1
Procedure: Breast cancer cells (MDA-MB-231), colon cancer cells (HCT116) and ovarian cancer cells (PA-1) were seeded (1000 to 4000 in 80 μl per well depending on the cell growth rate) into 96 well plates 24 hours before compound overlay. Compounds were prepared as 10 mM stock solutions in 100% DMSO which were diluted with DMEM (Dulbecco's Modified Eagle's Medium) cell growth Medium (Invitrogen, Burlington, ON, Canada) containing 10% FBS (Fetal Bovine Serum) to concentrations ranging from 50 nM to 250 μM. Aliquots (20 μl) from each concentration were overlaid to 80 μl of the pre-seeded cells in the 96 well plates to make final concentrations of 10 nM to 50 μM. The cells were cultured for 5 days before the Sulforhodamine B assay (SRB) was performed to determine the compound's cell growth inhibition activity.
Sulforhodamine B (purchased from Sigma, Oakville, ON, Canada) is a water-soluble dye that binds to the basic amino acids of the cellular proteins. Thus, colorimetric measurement of the bound dye provides an estimate of the total protein mass that is related to the cell number. the cells are fixed in situ by gently aspirating off the culture media and adding 50 μl ice cold 10% Trichloroacetic Acid (TCA) per well and incubate at 4° C. for 30-60 min. The plates are washed with H2O five times and allowed to air dry for 5 min. Addition of 50 μl 0.4% (w/v) SRB solution in 1% (v/v) acetic acid to each well and incubation for 30 min at RT completes the staining reaction. Following staining, plates are washed four times with 1% acetic acid to remove unbound dye and then allowed to air dry for 5 min. The stain is solubilized with 100 μl of 10 mM Tris pH 10.5 per well. Absorbance is read at 570 nm.
The percentage (%) of relative growth inhibition was calculated by comparing to DMSO treated only cells (100%). GI50's were determined for compounds with cytotoxic activity. The GI50 was calculated using GraphPad PRISM software (GraphPad Software, Inc., San Diego, Calif., USA).

human PLK4 = molecular target: T2, human PLK4 (Homo sapiens, UniProt O00444); experiment: PLK4 inhibition assay (indirect ELISA); assay type: biochemical; details: 15 μM ATP
T2 construct: amino terminal GST fusion of residues 1-391 of human PLK4; made in house; host or cells: E. coli
T2 sequence (O00444 1-391): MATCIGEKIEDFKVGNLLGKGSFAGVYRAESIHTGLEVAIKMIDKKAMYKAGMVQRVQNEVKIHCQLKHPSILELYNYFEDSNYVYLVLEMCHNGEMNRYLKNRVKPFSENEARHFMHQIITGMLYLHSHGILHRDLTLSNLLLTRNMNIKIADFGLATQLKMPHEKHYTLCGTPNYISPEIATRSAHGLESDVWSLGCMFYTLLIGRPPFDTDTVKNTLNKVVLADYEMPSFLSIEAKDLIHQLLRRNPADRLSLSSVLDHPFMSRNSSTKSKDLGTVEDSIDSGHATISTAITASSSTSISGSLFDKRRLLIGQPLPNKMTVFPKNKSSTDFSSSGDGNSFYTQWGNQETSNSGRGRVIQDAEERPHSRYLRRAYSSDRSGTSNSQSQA
Outline: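 Dephosphorylated GST-PLK4 (residues 1-391, E. coli; 4 nM) was preincubated 15 min with compound, then reacted 30 min with 15 μM ATP in HEPES pH 7.4, MgCl2, Brij 35 on MBP-coated plates. Phospho-MBP was detected by antibody/HRP ELISA at 450 nm; IC50 from 10-point titration by 4-parameter logistic fit, or single 10 μM % inhibition.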

TICs (Colon 12) = experiment: Colon tumor-initiating cell growth inhibition (Alamar Blue); assay type: cell-based; details: 216 h; Colon 12 TICs, 9 days; read-out: Tumor Initiating Cell GI50 Range Colon 12

Compound	IC50 (human TTK) [nM]	GI50 (Breast cancer cells) [nM]	GI50 [1] [nM]	GI50 [2] [nM]	IC50 (human PLK4) [nM]	GI50 (TICs (Colon 12)) [nM]
CC(C)C[C@H](NC(=O)c1ccc2[nH]nc(-c3ccc(N4CCN(C5COC5)CC4)cc3)c2c1)c1ccccn1 [Example A359, (S)-N-(3-methyl-1-(pyridin-2-yl)butyl)-3-(4-(4-(oxetan-3-yl)piperazin-1-yl)phenyl)-1H-indazole-5-carboxamide]	< 100	< 100	< 100	< 100	< 50	–
C[C@@H](O)CN1CCC(Oc2ccc(-c3n[nH]c4ccc(C(=O)N[C@H](c5ccsc5)C5CC5)cc34)cc2)CC1 [Example A220, N-((S)-cyclopropyl(thiophen-3-yl)methyl)-3-(4-((1-((R)-2-hydroxypropyl)piperidin-4-yl)oxy)phenyl)-1H-indazole-5-carboxamide]	< 100	100 to 500	100 to 500	< 100	< 50	–
CCC(CC)C(NC(=O)c1ccc2[nH]nc(-c3ccc(O[C@H]4C[C@H]5CC[C@@H](C4)N5C=O)cc3)c2c1)c1ccccn1 (stereo partly drawn) [Example A342, N-(2-ethyl-1-(pyridin-2-yl)butyl)-3-(4-(((1R,3R,5S)-8-formyl-8-azabicyclo[3.2.1]octan-3-yl)oxy)phenyl)-1H-indazole-5-carboxamide]	< 100	< 100	< 100	< 100	< 50	–
CC(C)CC(NC(=O)c1ccc2[nH]nc(-c3ccc(OC4CCN(C5COC5)CC4)cc3)c2c1)c1ccccc1Cl (stereo not drawn) [Example A355, N-(1-(2-chlorophenyl)-3-methylbutyl)-3-(4-((1-(oxetan-3-yl)piperidin-4-yl)oxy)phenyl)-1H-indazole-5-carboxamide]	< 100	100 to 500	100 to 500	100 to 500	< 50	–
CN1C2CCC1CC(Oc1ccc(-c3n[nH]c4ccc(C(=O)N[C@H](c5ccsc5)C5CCCC5)cc34)cc1)C2 (stereo partly drawn) [Example A248, N-((S)-cyclopentyl(thiophen-3-yl)methyl)-3-(4-(((1R,3R,5S)-8-methyl-8-azabicyclo[3.2.1]octan-3-yl)oxy)phenyl)-1H-indazole-5-carboxamide]	< 100	100 to 500	100 to 500	100 to 500	< 50	–
O=C(NC(c1ccccc1Cl)C1CCC1)c1ccc2[nH]nc(-c3ccc(N4CCN(C5COC5)CC4)cc3)c2c1 (stereo not drawn) [Example A297, N-((2-chlorophenyl)(cyclobutyl)methyl)-3-(4-(4-(oxetan-3-yl)piperazin-1-yl)phenyl)-1H-indazole-5-carboxamide]	< 100	< 100	< 100	< 100	< 50	–
CC(C)CC(NC(=O)c1ccc2[nH]nc(-c3ccc(OC4CN(C5COC5)C4)cc3)c2c1)c1ccccc1Cl (stereo not drawn) [Example A357, N-(1-(2-chlorophenyl)-3-methylbutyl)-3-(4-((1-(oxetan-3-yl)azetidin-3-yl)oxy)phenyl)-1H-indazole-5-carboxamide]	< 100	100 to 500	100 to 500	100 to 500	< 50	–
CN1[C@@H]2CC[C@H]1C[C@@H](Oc1ccc(-c3n[nH]c4ccc(C(=O)NC(c5ccccc5F)C5CC5)cc34)cc1)C2 (stereo partly drawn) [Example A282, N-(cyclopropyl(2-fluorophenyl)methyl)-3-(4-(((1R,3R,5S)-8-methyl-8-azabicyclo[3.2.1]octan-3-yl)oxy)phenyl)-1H-indazole-5-carboxamide]	< 100	100 to 500	< 100	< 100	< 50	–
C=CCCC(NC(=O)c1ccc2[nH]nc(-c3ccc(N4CCN(C5COC5)CC4)cc3)c2c1)c1ccccc1Cl (stereo not drawn) [Example A302, N-(1-(2-chlorophenyl)pent-4-en-1-yl)-3-(4-(4-(oxetan-3-yl)piperazin-1-yl)phenyl)-1H-indazole-5-carboxamide]	< 100	100 to 500	< 100	< 100	< 50	–
CC(C)C(NC(=O)c1ccc2[nH]nc(-c3ccc(O[C@H]4C[C@H]5CC[C@@H](C4)N5C)cc3)c2c1)c1ccccc1 (stereo partly drawn) [Example A285, N-(2-methyl-1-phenylpropyl)-3-(4-(((1R,3R,5S)-8-methyl-8-azabicyclo[3.2.1]octan-3-yl)oxy)phenyl)-1H-indazole-5-carboxamide]	< 100	100 to 500	< 100	< 100	< 50	–
CN1CCC2(CCc3cc(-c4n[nH]c5ccc(C(=O)N[C@H](c6ccccc6)C6CC6)cc45)ccc3O2)CC1 [Example A249, (S)-N-(cyclopropyl(phenyl)methyl)-3-(1′-methylspiro[chroman-2,4′-piperidin]-6-yl)-1H-indazole-5-carboxamide]	< 100	100 to 500	100 to 500	100 to 500	< 50	–
CN1C2COCC1CC(Oc1ccc(-c3n[nH]c4ccc(C(=O)NC(c5ccccc5)C5CC5)cc34)cc1)C2 [Example A387, N-(cyclopropyl(phenyl)methyl)-3-(4-(((1R,5S,7s)-9-methyl-3-oxa-9-azabicyclo[3.3.1]nonan-7-yl)oxy)phenyl)-1H-indazole-5-carboxamide]	< 100	> 500	< 100	< 100	< 50	–
O=C(NCC1(c2ccccc2)CCOCC1)c1ccc2[nH]nc(-c3ccc(N4[C@@H]5CC[C@H]4C[C@@H](O)C5)cc3)c2c1 [Example A492, 3-(4-((1R,3R,5S)-3-hydroxy-8-azabicyclo[3.2.1]octan-8-yI)phenyl)-N-((4-phenyltetrahydro-2H-pyran-4-yl)methyl)-1H-indazole-5-carboxamide]	< 100	< 100	< 100	< 100	< 50	< 100
O=C(N[C@H](CCO)c1ccccc1)c1ccc2[nH]nc(-c3ccc(N4[C@@H]5CC[C@H]4COC5)cc3)c2c1 [Example A423, 3-(4-((1R,5S)-3-oxa-8-azabicyclo[3.2.1]octan-8-yl)phenyl)-N-((R)-3-hydroxy-1-phenylpropyl)-1H-indazole-5-carboxamide]	< 100	< 100	< 100	< 100	< 50	–
CN1[C@@H]2CC[C@H]1C[C@@H](Oc1ccc(-c3n[nH]c4ccc(C(=O)NC(c5ccccc5Cl)C5CC5)cc34)cc1)C2 (stereo partly drawn) [Example A280, N-((2-chlorophenyl)(cyclopropyl)methyl)-3-(4-(((1R,3R,5S)-8-methyl-8-azabicyclo[3.2.1]octan-3-yl)oxy)phenyl)-H-indazole-5-carboxamide]	< 100	100 to 500	< 100	< 100	< 50	–
CC(C)C[C@H](NC(=O)c1ccc2[nH]nc(-c3ccc(N4CCN(C5COC5)CC4)cc3)c2c1)c1ccccc1F [Example A275, (S)-N-(1-(2-fluorophenyl)-3-methylbutyl)-3-(4-(4-(oxetan-3-yl)piperazin-1-yl)phenyl)-1H-indazole-5-carboxamide]	< 100	< 100	< 100	< 100	< 50	–
